Test system: contaminated slurry
Test: Wet state preservation challenge test: dosed calcium carbonate slurry inoculated repeatedly with contaminated slurry, streaked on nutrient agar, examined for viable colonies; as to growth of viable colonies on nutrient agar: key: − = no growth (no visible colonies); <10 = very light growth; + = light growth; ++ = moderate growth; +++ = heavy growth
Format: cell-based, bacteria
Parameters: viable colonies on nutrient agar: unit not given here
Conditions: for efficacy in preserving contaminated slurry (summary of Tables 4-8): between 0.03% and 0.09% of biocide A plus the surfactant, compared to biocide A and the surfactant used alone; for growth of viable colonies on nutrient agar: Biocide A 0 %; for test outcome in place of 3rd inoculation: surfactant 0.1, 0.05, 0.025 and 0.01%, test completed after 2nd inoculation
Protocol: In this example, a calcium carbonate-containing aqueous slurry was sterilized to eradicate bacterial contamination by weighing out 40 g aliquots into 60 g glass bottles and autoclaving the aliquots for 20 minutes at 120° C. A series of samples were prepared by taking the 40 g aliquots of the sterilized slurry and dosing with 0.136, 0.091, 0.046, 0.023, 0.011, and 0% of a biocide composition (“Biocide A”) shown in Table 1 plus 0, 0.01, 0.025, 0.05, and 0.1% of a surfactant as shown in Table 2. All samples were allowed to stand for 24 hours to equilibrate.
After equilibration, each test sample was inoculated with 0.8 g of a contaminated slurry, the bacteria count of which is shown in Table 3. The samples were incubated at 30° C. After a contact time of 6 hours, 1, 2, 3, or 4 days, a small aliquot of each sample was streaked across the surface of nutrient agar, incubated at 30° C. for 48 hours and the surface was examined for viable colonies. The inoculation and assessment procedures were repeated at 3 or 4 day intervals for a period of 3 inoculations.

[1] = surfactant 0.01 %, 1st inoculation, 0.2 days
[2] = surfactant 0.01 %, 1st inoculation, 1 day
[3] = surfactant 0.01 %, 1st inoculation, 2 days
[4] = surfactant 0.01 %, 1st inoculation, 3 days
[5] = surfactant 0.025 %, 1st inoculation, 0.2 days
[6] = surfactant 0.025 %, 1st inoculation, 1 day
[7] = surfactant 0.025 %, 1st inoculation, 2 days
[8] = surfactant 0.025 %, 1st inoculation, 3 days
[9] = surfactant 0.05 %, 1st inoculation, 0.2 days
[10] = surfactant 0.05 %, 1st inoculation, 1 day
[11] = surfactant 0.05 %, 1st inoculation, 2 days
[12] = surfactant 0.05 %, 1st inoculation, 3 days
[13] = surfactant 0.1 %, 1st inoculation, 0.2 days
[14] = surfactant 0.1 %, 1st inoculation, 1 day
[15] = surfactant 0.1 %, 1st inoculation, 2 days
[16] = surfactant 0.1 %, 1st inoculation, 3 days
[17] = Biocide A 0.091%, surfactant 0.05%, 1st inoculation, 1 day
[18] = Biocide A 0.091%, surfactant 0.01%, 1st inoculation, 0.2 days
[19] = Biocide A 0.136%, surfactant 0.025%, 3rd inoculation, 1 day
[20] = Biocide A 0.136%, surfactant 0.05%, 3rd inoculation, 1 day

CCCCCCCCCCCCOS(=O)(=O)[O-].[Na+] [SDS, Sodium dodecyl sulfate]
<10: viable colonies on nutrient agar (Biocide A 0.023%, surfactant 0.01%, 1st inoculation, 3 days) | viable colonies on nutrient agar (Biocide A 0.023%, surfactant 0.025%, 1st inoculation, 1 day) | viable colonies on nutrient agar (Biocide A 0.046%, surfactant 0.01%, 1st inoculation, 1 day) | viable colonies on nutrient agar (Biocide A 0.046%, surfactant 0.01%, 3rd inoculation, 3 days) | viable colonies on nutrient agar (Biocide A 0.046%, surfactant 0.05%, 1st inoculation, 0.2 days) | viable colonies on nutrient agar (Biocide A 0.046%, surfactant 0.05%, 2nd inoculation, 1 day) | viable colonies on nutrient agar (Biocide A 0.046%, surfactant 0.1%, 1st inoculation, 0.2 days) | viable colonies on nutrient agar (Biocide A 0.046%, surfactant 0.1%, 2nd inoculation, 1 day) | viable colonies on nutrient agar (Biocide A 0.091%, surfactant 0.025%, 3rd inoculation, 0.2 days)
+++: growth of viable colonies on nutrient agar [1] | growth of viable colonies on nutrient agar [2] | growth of viable colonies on nutrient agar [3] | growth of viable colonies on nutrient agar [4] | growth of viable colonies on nutrient agar [5] | growth of viable colonies on nutrient agar [6] | growth of viable colonies on nutrient agar [7] | growth of viable colonies on nutrient agar [8] | growth of viable colonies on nutrient agar [9] | growth of viable colonies on nutrient agar [10] | growth of viable colonies on nutrient agar [11] | growth of viable colonies on nutrient agar [12] | growth of viable colonies on nutrient agar [13] | growth of viable colonies on nutrient agar [14] | growth of viable colonies on nutrient agar [15] | growth of viable colonies on nutrient agar [16]
improved efficacy: efficacy in preserving contaminated slurry (summary of Tables 4-8)

CCCCC(CC)COC(=O)CC(C(=O)OCC(CC)CCCC)S(=O)(=O)[O-].[Na+] (centres unmarked) [Aerosol ® OT, Sodium dioctyl suphosuccinate]
<10: viable colonies on nutrient agar (Biocide A 0.091%, surfactant 0.01%, 1st inoculation, 1 day) | viable colonies on nutrient agar [17] | viable colonies on nutrient agar (Biocide A 0.136%, surfactant 0.025%, 1st inoculation, 1 day)
improved efficacy: efficacy in preserving contaminated slurry (summary of Tables 4-8)
+++: growth of viable colonies on nutrient agar [1] | growth of viable colonies on nutrient agar [2] | growth of viable colonies on nutrient agar [3] | growth of viable colonies on nutrient agar [4] | growth of viable colonies on nutrient agar [5] | growth of viable colonies on nutrient agar [6] | growth of viable colonies on nutrient agar [7] | growth of viable colonies on nutrient agar [8] | growth of viable colonies on nutrient agar [9] | growth of viable colonies on nutrient agar [10] | growth of viable colonies on nutrient agar [11] | growth of viable colonies on nutrient agar [12] | growth of viable colonies on nutrient agar [13] | growth of viable colonies on nutrient agar [14] | growth of viable colonies on nutrient agar [15] | growth of viable colonies on nutrient agar [16]
SAMPLES FAILED: test outcome in place of 3rd inoculation (Biocide A 0.023%)

CCCCCCCCCCCCc1ccc(S(=O)(=O)O)cc1 [Dodecyl benzene sulfonic acid]
SAMPLES FAILED: test outcome in place of 3rd inoculation (Biocide A 0.023%)
<10: viable colonies on nutrient agar (Biocide A 0.023%, surfactant 0.01%, 1st inoculation, 2 days) | viable colonies on nutrient agar (Biocide A 0.023%, surfactant 0.05%, 1st inoculation, 2 days) | viable colonies on nutrient agar (Biocide A 0.023%, surfactant 0.05%, 1st inoculation, 3 days) | viable colonies on nutrient agar (Biocide A 0.023%, surfactant 0.1%, 1st inoculation, 2 days) | viable colonies on nutrient agar (Biocide A 0.023%, surfactant 0.1%, 1st inoculation, 3 days) | viable colonies on nutrient agar (Biocide A 0.046%, surfactant 0.025%, 3rd inoculation, 2 days) | viable colonies on nutrient agar (Biocide A 0.046%, surfactant 0.05%, 3rd inoculation, 2 days) | viable colonies on nutrient agar (Biocide A 0.046%, surfactant 0.1%, 3rd inoculation, 2 days) | viable colonies on nutrient agar [18] | viable colonies on nutrient agar (Biocide A 0.091%, surfactant 0.01%, 3rd inoculation, 1 day) | viable colonies on nutrient agar (Biocide A 0.091%, surfactant 0.05%, 1st inoculation, 0.2 days) | viable colonies on nutrient agar (Biocide A 0.091%, surfactant 0.1%, 3rd inoculation, 1 day) | viable colonies on nutrient agar (Biocide A 0.136%, surfactant 0.01%, 3rd inoculation, 1 day) | viable colonies on nutrient agar [19] | viable colonies on nutrient agar [20]
improved efficacy: efficacy in preserving contaminated slurry (summary of Tables 4-8)
+++: growth of viable colonies on nutrient agar [1] | growth of viable colonies on nutrient agar [2] | growth of viable colonies on nutrient agar [3] | growth of viable colonies on nutrient agar [4] | growth of viable colonies on nutrient agar [5] | growth of viable colonies on nutrient agar [6] | growth of viable colonies on nutrient agar [7] | growth of viable colonies on nutrient agar [8] | growth of viable colonies on nutrient agar [9] | growth of viable colonies on nutrient agar [10] | growth of viable colonies on nutrient agar [11] | growth of viable colonies on nutrient agar [12] | growth of viable colonies on nutrient agar [13] | growth of viable colonies on nutrient agar [14] | growth of viable colonies on nutrient agar [15] | growth of viable colonies on nutrient agar [16]

CCCCC(CC)CN(CCC(=O)[O-])CCC(=O)[O-].[Na+].[Na+] (centres unmarked) [Lakeland AMA LF70 ™]
SAMPLES FAILED: test outcome in place of 3rd inoculation (Biocide A 0.023%)
<10: viable colonies on nutrient agar (Biocide A 0.046%, surfactant 0.01%, 1st inoculation, 2 days) | viable colonies on nutrient agar (Biocide A 0.046%, surfactant 0.1%, 1st inoculation, 2 days) | viable colonies on nutrient agar [18] | viable colonies on nutrient agar (Biocide A 0.091%, surfactant 0.01%, 3rd inoculation, 2 days) | viable colonies on nutrient agar (Biocide A 0.091%, surfactant 0.025%, 1st inoculation, 3 days) | viable colonies on nutrient agar [17] | viable colonies on nutrient agar (Biocide A 0.091%, surfactant 0.05%, 1st inoculation, 3 days) | viable colonies on nutrient agar (Biocide A 0.091%, surfactant 0.05%, 3rd inoculation, 2 days) | viable colonies on nutrient agar (Biocide A 0.091%, surfactant 0.1%, 1st inoculation, 3 days) | viable colonies on nutrient agar (Biocide A 0.091%, surfactant 0.1%, 3rd inoculation, 2 days) | viable colonies on nutrient agar (Biocide A 0.136%, surfactant 0.01%, 1st inoculation, 3 days) | viable colonies on nutrient agar [19] | viable colonies on nutrient agar (Biocide A 0.136%, surfactant 0.05%, 1st inoculation, 1 day) | viable colonies on nutrient agar (Biocide A 0.136%, surfactant 0.05%, 1st inoculation, 3 days) | viable colonies on nutrient agar [20] | viable colonies on nutrient agar (Biocide A 0.136%, surfactant 0.1%, 1st inoculation, 1 day) | viable colonies on nutrient agar (Biocide A 0.136%, surfactant 0.1%, 1st inoculation, 3 days)

Reference: patent publication US8317912B2, “Wet state preservation of mineral slurries” (Arch Chemicals, Inc., priority 2011, dated 2012)
